Experiments:
[1] = system: Tau 4R2N (amino acids 335-353) peptide substrate; assay: Peptide digest HPLC assay of tau protease activity; assay type: biochemical, human; conditions: with 11 μg tau trimer protease, 20 hr at 37° C.
Text: N-terminal sequencing of fragments using mass spectrometry identified autoproteolytic cut sites. In particular, cutting at the Lys340-Ser341 (340KS341) cut site occurred readily. Therefore, a 19-amino acid peptide corresponding to amino acids 335G to 353L of tau protein was synthesized that contained the KS cut site (340KS341). The reaction was monitored by reverse-phase high-pressure liquid chromatography (HPLC). […] An asterisk marks a non-specific contaminant that was used as a marker. […] 10 μg of tau peptide 335-353 ([…]) (SEQ ID NO:19) was custom synthesized by Genscript (Piscataway, N.J., USA) and 1 mg was dissolved in 1 mL of buffer (25 mM Tris-HCl pH 7.4). […] 32Karat™ LC-CE System, Beckman Coulter, Inc., (Indianapolis, Ind.)] using a linear gradient of acetonitrile in 0.1% TFA 0-60% acetonitrile on an analytical C18 column (12.5 cm×2.1 mm, 5 μm, (Supelco, Bellefonte, Pa., USA). 30 μg of peptide was incubated without tau protease as a negative control and analyzed with the same method;
Cleavage of the peptide substrate for tau protease, Tau 4R2N (amino acids 335-353) […] (SEQ ID NO.19), was used to monitor activity using reverse-phase HPLC. […] The large peak in the lower trace indicated intact peptide was greatly diminished in the upper trace and replaced with two smaller peaks F1 and F2 that represent fragments generated by TP-210. […]

[2] = system: Tau 4R1N oligomer mixture; assay: Cleavage of tau 4R1N by tau 4R2N trimer (SDS-PAGE); assay type: biochemical; conditions: overnight at 37° C.
Procedure: Tau oligomer formation leads to gain of toxic function and loss of function of tau monomer degraded by tau 4R2N trimer activity. Lane 1: Tau 4R2N monomer (0.1 μg); Lane 2: 1× Sample Buffer without reductant; Lane 3: 4R2N Trimer, no 4R1N; Lane 4:Tau 4R1N, no tau 4R2N trimer; Lane 5: Tau 4R2N trimer:tau 4R1N, 1:10; Lane 6: Tau 4R2N trimer:tau 4R1N trimer, 1:100; Lane 7: Tau 4R2N trimer:tau 4R1N 1:10. […] The arrows indicate fragments of tau 4R1N that are generated from tau 4R2N trimer protease activity. For the upper arrow, the fragments have the same apparent MW between the two isoforms, the lower arrow fragments differ with the fragment from tau 4R1N migrating faster than the fragment from tau 4R2N;

Substance: tau 4R2N trimer: purified disulfide-mediated trimer species of recombinant human tau 4R2N
- completeness of the peptide cleavage reaction [1]: more than 90%
- cutting of tau 4R1N [2]: cuts tau (4R1N) monomer and tau dimer
